Experiment [1] has as its target SHP-2 full length protein (Homo sapiens (Human), UniProt Q06124). In words: SHP-2 biochemical DiFMUP pseudosubstrate-fluorogenic assay. To be noted: 0.2 nM SHP-2, 1 μM IRS-1 activator peptide, 50 μM DiFMUP; read-out: SHP2 IC50. An outline of the steps:
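In-house recombinant full-length SHP-2 preincubated 90 min at room temperature with compounds (1:3 series, 10,000–0.005 nM), then DiFMUP substrate added at 50 μM final for 30 min more. Fluorescence normalised to DMSO wells (100%) and IC50 derived by curve fitting.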

In a further experiment the test system is NCI-H358 cells. In words: NCI-H358 3D tumor spheroid growth inhibition. To be noted: Homo sapiens, NCI-H358, 168 h, 3D spheroids, 7 days, 3D CellTiter Glo; cellular IC50 designated EC50; read-out: H358 EC50. The class given is cell-based. In short, it runs like this:
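Cells seeded at 1000/well in ultra-low-attachment plates at 37 °C, 5% CO2 to form spheroids, then incubated a further 7 days with compounds. Viability by 3D CellTiter Glo luminescence; % inhibition versus DMSO wells, with normalized cellular IC50 reported as EC50.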

The results in this text go back to US11179397B2, “Imidazopyrimidine derivatives” (Gilead Sciences, Inc., priority 2018, dated 2021).

Sequence of SHP-2 full length protein (Q06124 whole entry): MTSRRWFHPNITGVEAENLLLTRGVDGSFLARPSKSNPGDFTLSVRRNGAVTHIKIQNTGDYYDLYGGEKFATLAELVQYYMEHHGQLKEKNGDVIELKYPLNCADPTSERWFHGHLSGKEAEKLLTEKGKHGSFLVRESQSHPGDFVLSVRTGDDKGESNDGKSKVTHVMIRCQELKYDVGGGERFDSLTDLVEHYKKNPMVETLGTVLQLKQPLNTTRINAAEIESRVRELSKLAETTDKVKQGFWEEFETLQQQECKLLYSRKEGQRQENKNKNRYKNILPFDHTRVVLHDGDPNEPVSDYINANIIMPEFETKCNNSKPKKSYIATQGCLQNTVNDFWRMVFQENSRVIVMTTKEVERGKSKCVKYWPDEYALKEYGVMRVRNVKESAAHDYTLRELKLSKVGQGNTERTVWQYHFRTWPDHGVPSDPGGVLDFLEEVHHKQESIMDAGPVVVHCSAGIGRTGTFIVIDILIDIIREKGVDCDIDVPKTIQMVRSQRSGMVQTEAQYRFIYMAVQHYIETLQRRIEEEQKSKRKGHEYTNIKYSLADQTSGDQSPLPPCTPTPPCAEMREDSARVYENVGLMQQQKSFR

In general, IC50 refers to the concentration needed to halve the response being measured. Usually EC50 stands for the midpoint of the concentration-response curve. Turning to `N[C@@H]1CCCC12CCN(c1ncc(Nc3cccc(Cl)c3Cl)c3nccn13)CC2` [Example 72, (R)-8-(8-((2,3-dichlorophenyl)amino)imidazo[1,2-c]pyrimidin-5-yl)-8-azaspiro[4.5]decan-1-amine], in experiment [1], the IC50 turned out to be 2 µM. Further, in the experiment with NCI-H358 cells, the EC50 is > 12.5 µM.
In the case of `Cc1nc(N2CCC3(CCC[C@H]3N)CC2)n2ccnc2c1-c1ccc2cn[nH]c2c1` [Example 73, (R)-8-(8-(1H-indazol-6-yl)-7-methylimidazo[1,2-c]pyrimidin-5-yl)-8-azaspiro[4.5]decan-1-amine], in experiment [1], the half-inhibitory concentration (IC50) worked out at 0.03 µM. Moreover, the EC50 in the experiment on NCI-H358 cells was determined as 0.55 µM.
The matching figures for `Cc1nc(N2CCC3(CCC[C@H]3N)CC2)n2ccnc2c1-c1ccc2c(c1)OC(F)(F)O2` [Example 74, (R)-8-(8-(2,2-difluorobenzo[d][1,3]dioxol-5-yl)-7-methylimidazo[1,2-c]pyrimidin-5-yl)-8-azaspiro[4.5]decan-1-amine]: 0.86 µM and > 12.5 µM.
Taken in the same sequence, the figures for `Cc1nc(N2CCC3(CC2)C[C@@H](O)C[C@H]3N)n2ccnc2c1Sc1cccc(Cl)c1Cl` [Example 75, (2R,4R)-4-amino-8-(8-((2,3-dichlorophenyl)thio)-7-methylimidazo[1,2-c]pyrimidin-5-yl)-8-azaspiro[4.5]decan-2-ol] were 0.0039 µM and 0.048 µM.
Taken in the same sequence, the figures for `Cc1nc(N2CCC3(CC2)CO[C@@H](C)[C@H]3N)n2ccnc2c1Sc1cccc(Cl)c1Cl` [Example 76, (3S,4S)-8-(8-((2,3-dichlorophenyl)thio)-7-methylimidazo[1,2-c]pyrimidin-5-yl)-3-methyl-2-oxa-8-azaspiro[4.5]decan-4-amine] were 0.0033 µM and 0.059 µM.
`N[C@@H]1CCCC12CCN(c1ncc(Sc3ccc4cn[nH]c4c3)c3nccn13)CC2` [Example 77, (R)-8-(8-((1H-indazol-6-yl)thio)imidazo[1,2-c]pyrimidin-5-yl)-8-azaspiro[4.5]decan-1-amine]: the IC50 in experiment [1] worked out at 0.18 µM. Besides, the EC50 in the experiment with NCI-H358 cells worked out at 3.1 µM.
The matching figures for `N[C@@H]1CCCC12CCN(c1ncc(Sc3ccnc4ccccc34)c3nccn13)CC2` [Example 78, (R)-8-(8-(quinolin-4-ylthio)imidazo[1,2-c]pyrimidin-5-yl)-8-azaspiro[4.5]decan-1-amine]: 0.0059 µM and 0.095 µM.
Consider `N[C@@H]1CCCC12CCN(c1ncc(SC3CCCCC3)c3nccn13)CC2` [Example 79, (R)-8-(8-(cyclohexylthio)imidazo[1,2-c]pyrimidin-5-yl)-8-azaspiro[4.5]decan-1-amine], for which, in experiment [1], the IC50 came to 5.3 µM. Also, the EC50 in the experiment with NCI-H358 cells was > 12.5 µM.
Take `Cc1nccc(Sc2cnc(N3CCC4(CCC[C@H]4N)CC3)n3ccnc23)c1C` [Example 80, (R)-8-(8-((2,3-dimethylpyridin-4-yl)thio)imidazo[1,2-c]pyrimidin-5-yl)-8-azaspiro[4.5]decan-1-amine]: in experiment [1], the IC50 amounted to 0.028 µM. Besides, in the experiment on NCI-H358 cells, the EC50 worked out at 0.27 µM.
In the case of `Cc1c(Sc2cnc(N3CCC4(CCC[C@H]4N)CC3)n3ccnc23)ccnc1Cl` [Example 81, (R)-8-(8-((2-chloro-3-methylpyridin-4-yl)thio)imidazo[1,2-c]pyrimidin-5-yl)-8-azaspiro[4.5]decan-1-amine], in experiment [1], the half-maximal inhibitory concentration (IC50) worked out at 0.0072 µM. Further, in the experiment with NCI-H358 cells, the EC50 was determined as 0.082 µM.
Taken in the same sequence, the figures for `N[C@@H]1CCCC12CCN(c1ncc(Sc3ccnc4c3CCCC4)c3nccn13)CC2` [Example 82, (R)-8-(8-((5,6,7,8-tetrahydroquinolin-4-yl)thio)imidazo[1,2-c]pyrimidin-5-yl)-8-azaspiro[4.5]decan-1-amine] were 0.011 µM and 0.125 µM.
The matching figures for `N[C@@H]1CCCC12CCN(c1ncc(Sc3cccn4cnnc34)c3nccn13)CC2` [Example 83, (R)-8-(8-([1,2,4]triazolo[4,3-a]pyridin-8-ylthio)imidazo[1,2-c]pyrimidin-5-yl)-8-azaspiro[4.5]decan-1-amine]: 0.15 µM and > 12.5 µM.
Taken in the same sequence, the figures for `N[C@@H]1c2ccccc2CC12CCN(c1ncc(Sc3cccc(Cl)c3Cl)c3nccn13)CC2` [Example 85, (S)-1′-(8-((2,3-dichlorophenyl)thio)imidazo[1,2-c]pyrimidin-5-yl)-1,3-dihydrospiro[indene-2,4′-piperidin]-1-amine] were 0.0021 µM and 0.011 µM.
Turning to `N[C@H]1c2ccccc2CC12CCN(c1ncc(Sc3cccc(Cl)c3Cl)c3nccn13)CC2` [Example 86, (R)-1′-(8-((2,3-dichlorophenyl)thio)imidazo[1,2-c]pyrimidin-5-yl)-1,3-dihydrospiro[indene-2,4′-piperidin]-1-amine], in experiment [1], the IC50 amounted to 0.25 µM. Further, the EC50 with NCI-H358 cells came to 0.35 µM.
Taken in the same sequence, the figures for `N#Cc1cccc2c(Sc3cnc(N4CCC5(CCC[C@H]5N)CC4)n4ccnc34)ccnc12` [Example 88, (R)-4-((5-(1-amino-8-azaspiro[4.5]decan-8-yl)imidazo[1,2-c]pyrimidin-8-yl)thio)quinoline-8-carbonitrile] were 0.018 µM and 0.16 µM.
Regarding `N[C@@H]1CCCC12CCN(c1ncc(Sc3cc(=O)[nH]c4ccccc34)c3nccn13)CC2` [Example 89, (R)-4-((5-(1-amino-8-azaspiro[4.5]decan-8-yl)imidazo[1,2-c]pyrimidin-8-yl)thio)quinolin-2(1H)-one], the IC50 in experiment [1] is > 10 µM. For the same compound, the EC50 in the experiment with NCI-H358 cells is > 12.5 µM.
The matching figures for `N[C@@H]1CCCC12CCN(c1ncc(Sc3ccnc4ncccc34)c3nccn13)CC2` [Example 90, (R)-8-(8-((1,8-naphthyridin-4-yl)thio)imidazo[1,2-c]pyrimidin-5-yl)-8-azaspiro[4.5]decan-1-amine]: 0.037 µM and 0.41 µM.
Taken in the same sequence, the figures for `C[C@H](N)C1CCN(c2ncc(Sc3cccc(Cl)c3Cl)c3nccn23)CC1` [Example 91, (S)-1-(1-(8-((2,3-dichlorophenyl)thio)imidazo[1,2-c]pyrimidin-5-yl)piperidin-4-yl)ethan-1-amine] were 0.17 µM and 2 µM.
Turning to `C[C@@H]1OCC2(CCN(c3ncc(Sc4cc(=O)n(C)c5ccccc45)c4nccn34)CC2)[C@@H]1N` [Example 92, 4-((5-((3S,4S)-4-amino-3-methyl-2-oxa-8-azaspiro[4.5]decan-8-yl)imidazo[1,2-c]pyrimidin-8-yl)thio)-1-methylquinolin-2(1H)-one], the IC50 in experiment [1] was > 10 µM. Moreover, the concentration for a half-maximal effect (EC50) in the experiment with NCI-H358 cells is > 12.5 µM.
Taken in the same sequence, the figures for `C[C@@H]1OCC2(CCN(c3ncc(Sc4cncc5ccccc45)c4nccn34)CC2)[C@@H]1N` [Example 93, (3S,4S)-3-methyl-8-(8-(isoquinolin-4-ylthio)imidazo[1,2-c]pyrimidin-5-yl)-2-oxa-8-azaspiro[4.5]decan-4-amine] were 0.48 µM and > 12.5 µM.
Taken in the same sequence, the figures for `C[C@@H](N)C1CCN(c2ncc(Sc3cccc(Cl)c3Cl)c3nccn23)CC1` [Example 94, (R)-1-(1-(8-((2,3-dichlorophenyl)thio)imidazo[1,2-c]pyrimidin-5-yl)piperidin-4-yl)ethan-1-amine] were 0.17 µM and 1 µM.
Taken in the same sequence, the figures for `C[C@@H]1OCC2(CCN(c3ncc(Sc4cccc5ncsc45)c4nccn34)CC2)[C@@H]1N` [Example 95, (3S,4S)-8-(8-(benzo[d]thiazol-7-ylthio)imidazo[1,2-c]pyrimidin-5-yl)-3-methyl-2-oxa-8-azaspiro[4.5]decan-4-amine] were 0.0052 µM and 0.095 µM.
As to `C[C@@H]1OCC2(CCN(c3ncc(Sc4cccc5c(C=O)csc45)c4nccn34)CC2)[C@@H]1N` [Example 96, 7-((5-((3S,4S)-4-amino-3-methyl-2-oxa-8-azaspiro[4.5]decan-8-yl)imidazo[1,2-c]pyrimidin-8-yl)thio)benzo[b]thiophene-3-carbaldehyde], the IC50 in experiment [1] was 0.0041 µM. Further, the half-maximal effective concentration (EC50) with NCI-H358 cells worked out at 0.097 µM.
Turning to `C[C@@H]1OCC2(CCN(c3ncc(Sc4ccnc5c4CCC5)c4nccn34)CC2)[C@@H]1N` [Example 97, (3S,4S)-8-(8-((6,7-dihydro-5H-cyclopenta[b]pyridin-4-yl)thio)imidazo[1,2-c]pyrimidin-5-yl)-3-methyl-2-oxa-8-azaspiro[4.5]decan-4-amine], in experiment [1], the IC50 was determined as 0.011 µM. Besides, the EC50 in the experiment on NCI-H358 cells was determined as 0.11 µM.
Taken in the same sequence, the figures for `C[C@@H]1OCC2(CCN(c3ncc(Sc4cccn5nccc45)c4nccn34)CC2)[C@@H]1N` [Example 98, (3S,4S)-3-methyl-8-(8-(pyrazolo[1,5-a]pyridin-4-ylthio)imidazo[1,2-c]pyrimidin-5-yl)-2-oxa-8-azaspiro[4.5]decan-4-amine] were 0.016 µM and 0.25 µM.
Taken in the same sequence, the figures for `C[C@@H]1OCC2(CCN(c3ncc(Sc4cccc5ccsc45)c4nccn34)CC2)[C@@H]1N` [Example 99, (3S,4S)-8-(8-(benzo[b]thiophen-7-ylthio)imidazo[1,2-c]pyrimidin-5-yl)-3-methyl-2-oxa-8-azaspiro[4.5]decan-4-amine] were 0.0041 µM and 0.096 µM.
The matching figures for `C[C@@H]1OCC2(CCN(c3ncc(Sc4cccc5nc(N)sc45)c4nccn34)CC2)[C@@H]1N` [Example 100, (3S,4S)-8-(8-((2-aminobenzo[d]thiazol-7-yl)thio)imidazo[1,2-c]pyrimidin-5-yl)-3-methyl-2-oxa-8-azaspiro[4.5]decan-4-amine]: 0.0067 µM and 0.14 µM.
For `CSc1ccccc1Sc1cnc(N2CCC3(CC2)CO[C@@H](C)[C@H]3N)n2ccnc12` [Example 101, (3S,4S)-3-methyl-8-(8-((2-(methylthio)phenyl)thio)imidazo[1,2-c]pyrimidin-5-yl)-2-oxa-8-azaspiro[4.5]decan-4-amine], the half-maximal inhibitory concentration (IC50) in experiment [1] turned out to be 0.0057 µM. Moreover, the EC50 in the experiment with NCI-H358 cells came out at 0.084 µM.
